Measurements reported in ChEMBL document CHEMBL2157860, “Optimization of a potent class of arylamide colony-stimulating factor-1 receptor inhibitors leading to anti-inflammatory clinical candidate 4-cyano-N-[2-(1-cyclohexen-1-yl)-4-[1-[(dimethylamino)acetyl]-4-piperidinyl]phenyl]-1H-imidazole-2-carboxamide (JNJ-28312141)” (J Med Chem, 2011).
Converted amounts (≈) assume the structure as drawn.

Experiments:
[1] = Oral bioavailability in CD1 mouse at 5 mg/kg; type: ADME, organism-based; details: in vivo
[2] = (§1) Half life in CD1 mouse at 0.5 mg/kg, iv; type: ADME, organism-based; design: dose 0.5 mg/kg, route intravenous; details: CD1, mouse, in vivo
[3] = Cmax in CD1 mouse at 5 mg/kg, po; type: ADME, organism-based; design: dose 5 mg/kg, route oral; details: in vivo
[4] = Half life in CD1 mouse at 5 mg/kg, po; type: ADME, organism-based; design: dose 5 mg/kg, route oral; details: in vivo
[5] = Solubility of the compound in PBS; type: physicochemical
[6] = Metabolic stability in mouse liver microsomes assessed as compound remaining after 10 mins; type: ADME, Microsome; details: read-out: Stability
[7] = AUClast in CD1 mouse at 5 mg/kg, po; type: ADME, organism-based; design: time 0 - last, dose 5 mg/kg, route oral; details: plasma
[8] = (§2) Apparent volume of distribution in CD1 mouse at 0.5 mg/kg, iv; type: ADME, organism-based; design: dose 0.5 mg/kg, route intravenous; details: CD1, mouse, in vivo, read-out: Vz
[9] = Metabolic stability in human liver microsomes assessed as compound remaining after 10 mins; type: ADME, Microsome; details: read-out: Stability
[10] = Clearance in CD1 mouse at 0.5 mg/kg, iv; type: ADME, organism-based; design: dose 0.5 mg/kg, route intravenous; details: in vivo
Mus musculus [11] = assay: (§3) Drug uptake in CD1 mouse at 5 mg/kg, po after 8 hrs; type: ADME, organism-based; design: dose 5 mg/kg, route oral; details: mouse, in vivo, 8 h, BLD = below limit of detection
Liver = assay: Metabolic stability in mouse liver microsomes assessed as glutathione conjugation at 20 to 40 uM after 1 hr by LC/MS analysis; type: ADME, Microsome
[12] = Drug uptake in CD1 mouse at 5 mg/kg, po after 4 hrs; type: ADME, organism-based; design: dose 5 mg/kg, route oral; details: in vivo, read-out: Drug uptake
[13] = Tmax in CD1 mouse at 5 mg/kg, po; type: ADME, organism-based; design: dose 5 mg/kg, route oral; details: in vivo
Mus musculus [14] = assay: as §1; type: ADME, organism-based; design: dose 0.5 mg/kg, route intravenous; details: mouse, in vivo
Mus musculus [15] = assay: as §2; type: ADME, organism-based; design: dose 0.5 mg/kg, route intravenous; details: mouse, in vivo
[16] = as §3; type: ADME, organism-based; design: dose 5 mg/kg, route oral; details: CD1, mouse, in vivo, read-out: Drug uptake

Row | bioavailability [1] [%] | half-life [2] [min] | Cmax [3] [ng/mL] | half-life [4] [min] | solubility [5] [µM] | remaining at 10 min [6] [%] | AUC(0-t) [7] [ng·h/mL] | Vd [8] [L/kg] | remaining at 10 min [9] [%] | clearance [10] [mL/min/kg] | further results | Structure (SMILES)
1 | 83 | 81.6 | 296 | 140 | 37.3 (≈ 17.2 µg/mL) | 81 | 1020 | 7.11 | 87 | 60.6 | – | CN(C)CC(=O)N1CCC(c2ccc(NC(=O)c3nc(C#N)c[nH]3)c(C3=CCCCC3)c2)CC1
2 | 12 | 430 | 50 | 120 | 38.8 | 96 | 95.2 | 32 | 100 | 51.7 | Drug uptake (Mus musculus [11]): BLD; Stability (Liver): Stable; concentration at 4 h [12]: 7 ng/mL; Tmax [13]: 15 min | N#Cc1c[nH]c(C(=O)Nc2ccc(C3CCNCC3)cc2C2=CCCCC2)n1.O=C(O)C(F)(F)F
3 | – | – | – | – | – | 77 | – | – | 77 | – | – | N#Cc1c[nH]c(C(=O)Nc2ccc(C3CCN(c4ccccn4)CC3)cc2C2=CCCCC2)n1
4 | – | – | – | – | 11.8 (≈ 5.06 µg/mL) | 93 | – | – | 100 | – | – | N#CCCN1CCC(c2ccc(NC(=O)c3nc(C#N)c[nH]3)c(C3=CCCCC3)c2)CC1
5 | – | – | – | – | – | 79 | – | – | 75 | – | – | N#Cc1c[nH]c(C(=O)Nc2ccc(C3CCN(Cc4ccccn4)CC3)cc2C2=CCCCC2)n1
6 | – | – | – | – | > 40 | 89 | – | – | 100 | – | – | N#Cc1c[nH]c(C(=O)Nc2ccc(C3CCN(CCO)CC3)cc2C2=CCCCC2)n1
7 | – | – | – | – | – | 94 | – | – | 100 | – | – | N#Cc1c[nH]c(C(=O)Nc2ccc(C3CCN(C(CO)CO)CC3)cc2C2=CCCCC2)n1
8 | 88 | 86.4 | 866 | 93 | 4.2 (≈ 2.02 µg/mL) | 98 | 2130 | 3.84 | 94 | 30.7 | – | CS(=O)(=O)CCN1CCC(c2ccc(NC(=O)c3nc(C#N)c[nH]3)c(C3=CCCCC3)c2)CC1
9 | 9.8 | 83.4 | 55 | 52.8 | 28.6 (≈ 12.4 µg/mL) | 79 | 141 | 6.43 | 81 | 53.3 | – | N#Cc1c[nH]c(C(=O)Nc2ccc(C3CCN(CC(N)=O)CC3)cc2C2=CCCCC2)n1
10 | – | – | – | – | – | 70 | – | – | 98 | – | – | N#Cc1c[nH]c(C(=O)Nc2ccc(C3CCN(CC(=O)O)CC3)cc2C2=CCCCC2)n1
11 | 101 | – | 461 | 142 | 25.9 (≈ 12.7 µg/mL) | 96 | 1550 | – | 77 | – | t1/2 (Mus musculus [14]): 13.8 min; Vz (Mus musculus [15]): 8.99 L/kg | N#Cc1c[nH]c(C(=O)Nc2ccc(C3CCN(CCN4CCOCC4)CC3)cc2C2=CCCCC2)n1
12 | – | – | – | – | – | 66 | – | – | 56 | – | – | N#Cc1c[nH]c(C(=O)Nc2ccc(C3CCN(C(=O)c4cccnc4)CC3)cc2C2=CCCCC2)n1
13 | – | – | – | – | – | 100 | – | – | 89 | – | – | N#Cc1c[nH]c(C(=O)Nc2ccc(C3CCN(C(=O)[C@H](O)CO)CC3)cc2C2=CCCCC2)n1
14 | – | – | – | – | – | 79 | – | – | 67 | – | – | N#Cc1c[nH]c(C(=O)Nc2ccc(C3CCN(C(=O)CNCCO)CC3)cc2C2=CCCCC2)n1
15 | – | – | – | – | – | 60 | – | – | 69 | – | – | CN(CCO)CC(=O)N1CCC(c2ccc(NC(=O)c3nc(C#N)c[nH]3)c(C3=CCCCC3)c2)CC1
16 | 2.3 | 72 | 24 | 93 | 0.91 (≈ 0.451 µg/mL) | 86 | 125 | 1.58 | 100 | 23.9 | – | CS(=O)(=O)CC(=O)N1CCC(c2ccc(NC(=O)c3nc(C#N)c[nH]3)c(C3=CCCCC3)c2)CC1
17 | – | – | – | – | – | 89 | – | – | 100 | – | – | N#Cc1c[nH]c(C(=O)Nc2ccc(C3CCN(C(=O)c4ccc[n+]([O-])c4)CC3)cc2C2=CCCCC2)n1
18 | – | – | – | – | – | 92 | – | – | 100 | – | – | N#Cc1c[nH]c(C(=O)Nc2ccc(C3CCN(C(=O)c4cc[n+]([O-])cc4)CC3)cc2C2=CCCCC2)n1
19 | – | – | – | – | – | 100 | – | – | 89 | – | – | N#Cc1c[nH]c(C(=O)Nc2ccc(C3CCN(C(=O)Cc4c[nH]cn4)CC3)cc2C2=CCCCC2)n1
20 | 13 | 32.4 | 81 | 24 | 36.7 (≈ 18.3 µg/mL) | 90 | 101 | 3.85 | 82 | 81.8 | – | Cn1cnc(CC(=O)N2CCC(c3ccc(NC(=O)c4nc(C#N)c[nH]4)c(C4=CCCCC4)c3)CC2)c1
21 | – | – | – | – | 1.6 (≈ 0.791 µg/mL) | 37 | – | – | 34 | – | – | N#Cc1c[nH]c(C(=O)Nc2ccc(C3CCN(C(=O)Cc4ccccn4)CC3)cc2C2=CCCCC2)n1
22 | – | – | – | – | 10.4 (≈ 5.14 µg/mL) | 21 | – | – | 28 | – | – | N#Cc1c[nH]c(C(=O)Nc2ccc(C3CCN(C(=O)Cc4cccnc4)CC3)cc2C2=CCCCC2)n1
23 | 18 | 24.6 | 118 | 13.8 | 0.39 (≈ 0.193 µg/mL) | 24 | 68 | 7.27 | 11 | 205 | – | N#Cc1c[nH]c(C(=O)Nc2ccc(C3CCN(C(=O)Cc4ccncc4)CC3)cc2C2=CCCCC2)n1
24 | – | – | – | – | – | 23 | – | – | 57 | – | – | N#Cc1c[nH]c(C(=O)Nc2ccc(C3CCN(C(=O)CCN4CCOCC4)CC3)cc2C2=CCCCC2)n1
25 | – | – | – | – | – | 23 | – | – | 66 | – | – | N#Cc1c[nH]c(C(=O)Nc2ccc(C3CCN(C(=O)CN4CCOCC4)CC3)cc2C2=CCCCC2)n1
26 | – | – | – | – | – | 93 | – | – | 94 | – | – | CC(C)(N)C(=O)N1CCC(c2ccc(NC(=O)c3nc(C#N)c[nH]3)c(C3=CCCCC3)c2)CC1
27 | 9.3 | 145 | 24 | 97.8 | 8.2 (≈ 3.79 µg/mL) | 61 | 129 | 10.3 | 80 | 49.2 | – | N#Cc1c[nH]c(C(=O)Nc2ccc(C3CCN(C(=O)NCCO)CC3)cc2C2=CCCCC2)n1
28 | – | – | – | – | – | 70 | – | – | 78 | – | – | N#Cc1c[nH]c(C(=O)Nc2ccc(C3CCN(C(N)=O)CC3)cc2C2=CCCCC2)n1
29 | 75 | 180 | 285 | 186 | – | – | 1160 | 12.3 | – | 46 | concentration at 8 h [16]: 64 ng/mL; concentration at 4 h [12]: 183 ng/mL; Tmax [13]: 30 min | CC1CCN(c2cc(N3CCN(C)CC3)ccc2NC(=O)c2ccc(C#N)o2)CC1
30 | 15 | 72 | 209 | 113 | 26.1 (≈ 10.9 µg/mL) | 86 | 454 | 2.8 | 95 | 27 | concentration at 8 h [16]: 9 ng/mL; Stability (Liver): Stable; concentration at 4 h [12]: 54 ng/mL; Tmax [13]: 30 min | CC(=O)N1CCC(c2ccc(NC(=O)c3nc(C#N)c[nH]3)c(C3=CCCCC3)c2)CC1
